{"source": "ChEMBL document CHEMBL3817821", "about": "“Design and synthesis of thiamine analogues to study their binding to the ECF transporter for thiamine in bacteria” (Medchemcomm, 2016)", "key": {"[1]": {"experiment": "Binding affinity to His8-tagged Lactococcus lactis ThiT expressed in Lactococcus lactis NZ9000 cells by isothermal […] analysis", "assay_type": "cell-based"}, "[2]": {"experiment": "Binding affinity to His8-tagged Lactococcus lactis ThiT expressed in Lactococcus lactis NZ9000 cells by intrinsic fluorescence titration assay", "assay_type": "cell-based"}, "[3]": {"experiment": "Binding affinity to Lactococcus lactis ThiT Gly129Ala mutant"}}, "note": "pKd: −log10 of the molar value.", "data": [{"smiles": "Cc1c(Cc2cnc(N)nc2N)csc1CCO", "values": [{"measurement": "pKd", "setting": "[1]", "value": 5.54}]}, {"smiles": "Cc1ncc(C[n+]2csc(CCO)c2C)c(N)n1", "note": "[THIAMINE]", "values": [{"measurement": "pKd", "setting": "[2]", "value": 9.91}, {"measurement": "pKd", "setting": "[3]", "value": 7.47}]}, {"smiles": "Cc1c(Cc2cnc(C(F)(F)F)nc2N)csc1CCO", "values": [{"measurement": "pKd", "setting": "[2]", "value": 8.07}]}, {"smiles": "CCc1ncc(Cc2csc(CCO)c2C)c(N)n1", "values": [{"measurement": "pKd", "setting": "[2]", "value": 8.30}]}, {"smiles": "Cc1c(Cc2cnc(C(C)C)nc2N)csc1CCO", "values": [{"measurement": "pKd", "setting": "[2]", "value": 7.87}]}, {"smiles": "Cc1c(Cc2cncnc2N)csc1CCO", "values": [{"measurement": "pKd", "setting": "[2]", "value": 5.99}]}, {"smiles": "Cc1ncc(Cc2csc(CCO)c2C)c(N)n1", "note": "[3-DEAZATHIAMINE]", "values": [{"measurement": "pKd", "setting": "[2]", "value": 8.37}]}]}
